Tests used:
[1] = system: H1299 cells of lung carcinoma cell line; experiment: Cytotoxicity of liposomes: apoptotic cells detected with Annexin V by flow cytometry; type: cell-based; conditions: aminooxylipid incorporated into liposomal bilayer
Experimental: (§1) Methods: The cytotoxicity of liposomes prepared as described in Example 15 is determined by comparing the cytotoxicity of EPC liposomes and EPC liposomes with an incorporated aminooxylipid of general formula I (according to Example 12, 13 or 14) in in vitro experiments with T-lymphocytes and on H1299 cells of lung carcinoma cell line.
(§2) Measurements were performed on a flow cytometer Fortessa (Becton Dickinson). Apoptotic cells were detected and quantified using the fluorescent dye Annexin V (Invitrogen).
(§3) In all experiments, 500 μl media per well were used and lipid content was 100 μg per 1 ml of the medium. Unmodified liposomes and liposomes modified post-liposomally with hyaluronic acid were incubated. In Experiment 1, H1299 cells of lung carcinoma were incubated for 30 minutes at 4° C. In Experiment 2, T-lymphocytes were used and incubated at room temperature in a rotator. In Experiments 3 and 4, H1299 cells of lung carcinoma cell line were used and incubated for 2 hours in a CO2 incubator (37° C., 5% CO2). In Experiment 5, H1299 cells of lung carcinoma were used. These cells were incubated for 30 minutes at 4° C. in a refrigerator.

T-lymphocytes = experiment: as above; type: cell-based; conditions: aminooxylipid incorporated into liposomal bilayer
Experimental: as §1, §2, §3

[2] = Size, PDI and zeta-potential of liposomes by DLS (Nanosizer ZS); type: physicochemical; conditions: for Effect of incorporation into liposomes on the final distribution of liposomes: 99% EPC, 1% aminooxylipid; for Zeta potential: liposomes containing 1% aminooxylipid in PBS solution with neutral pH
Experimental: Methods: Liposomes with incorporated aminooxylipids were prepared by phospholipid film hydration. All lipids were dissolved in chloroform at a concentration of 10 mg of lipid/1 ml chloroform at a molar ratio of 99% EPC to 1% aminooxylipids of general formula I (according to Examples 12, 13 and 14). The chloroform solution was evaporated in a globular flask on a rotary evaporator; pressure: 100 hPa, water bath temperature: 37° C., 90 revolutions/minute). The resulting lipid film was hydrated with PBS (pH 7.2, 0.14M NaCl, 20 mM Na-phosphate) to a final concentration of 10 mg/ml. The liposomes were then extruded through Nucleopore polycarbonate filters with 400 and 100 nm pore size. The size and zeta-potential were measured using a Nanosizer ZS (Malvern, UK) in a DTS cell, Attenuator value 4, 25° C. […] Example with a lipid of general formula I (according to Example 12): EPC liposomes: size 82 nm, PDI 0.11; EPC+ aminooxylipid 1%: size 81 nm, PDI 0.1.
DLS measurements were carried out under the same conditions as in Example 15.
Methods: The liposomes prepared as described in Example 15, containing 1% aminooxylipidid of general formula I (according to Example 14) at a starting concentration of 10 mg/ml PBS were mixed with a mannan solution in PBS in a ratio of 1 mg total lipid to 0.1 mg mannan. The reaction was carried out at room temperature. Low molecular weight components and unbound mannan were removed by gel chromatography on a Superose 6 column. The mannan binding onto the liposomal surface was confirmed by: a) scanning and transmission electron microscopy; b) the change in liposome size was determined by the DLS technique (Zetasizer ZS, Malvern UK). The polysaccharide mannan was isolated from the yeast Candida albicans. The size of the molecules of mannan and liposomes was measured by DLS. […] Dendritic cells were prepared by culture from peripheral blood of healthy donors. Their stimulating activity was compared with lipopolysaccharide activity (LPS, standard Salmonella minnesota).

[3] = HA binding onto liposomes presenting the aminooxy group vs. the amino group (gel chromatography, fluorimetry); conditions: incubated in 10 mM citric acid; lipid incorporated in liposomes
Experimental: Methods: Liposomes presenting the aminooxy group were prepared by the procedure described in Example 15, containing 1% aminooxylipidid of general formula I (according to Example 14) at a starting concentration of 10 mg/ml PBS. The amino group-presenting liposomes were prepared by the same technique with the amino group-containing lipid DOPE. These liposomes at a starting concentration of 10 mg/ml PBS were mixed with fluorescently labelled HA (Sigma-Aldrich) at a concentration of 1 mg/ml PBS in a ratio of 1 mg total lipid to 0.1 mg HA. Incubation takes place for at least 30 minutes at room temperature (see Example 19). Both samples were incubated in 10 mM citric acid. Unbound HA was removed on a Superose 6 column (200 μl spraying buffer, flow rate of the first milliliter was 0.1 ml/min, then 0.3 ml/min, collection of 1 ml fractions). Fluorescence was measured using a Perkin Elmer fluorimeter at appropriate wavelengths (excitation for FITC-HA was 490 nm, emission 505 nm).

Compound	Cytotoxicity of EPC liposomes with incorporated aminooxylipid vs. EPC liposomes [1]	Cytotoxicity of EPC liposomes with incorporated aminooxylipid vs. EPC liposomes (T-lymphocytes)	Effect of incorporation into liposomes on the final distribution of liposomes ([2]; Example 15)	PDI ([2]; Example 15, EPC liposomes without or with 1% aminooxylipid, PBS)	size ([2]; Example 15, EPC liposomes without or with 1% aminooxylipid, PBS, extruded 400 and 100 nm) [nm]	Zeta potential [2]	HA remaining bound after acidification, % of the original HA [3]	size (size distribution, particle numbers) ([2]; Example 20, FIG. 3, liposomes with 1% aminooxylipid, alone or coupled with IgY) [nm]
CCCCCCCCCCCCCCC(CCCCCCCCCCCCCC)C(=O)NCCNC(=O)CON.O=C(O)C(F)(F)F [Example 12, N^1-(2-tetradecylhexadecanoyl)-N^2-amoniumoxyacetyl-1,2-diaminoethane-trifluoroacetate]	does not result in an increase in their cytotoxicity	does not result in an increase in their cytotoxicity	no significant effect	0.1	81	around 0 mV		
CCCCCCCCCCCCCCC(CCCCCCCCCCCCCC)C(=O)NCOC(CCOCC)NC(=O)CON.O=C(O)C(F)(F)F (centres unmarked) [Example 14, N^1-(2-tetradecylhexadecanoyl)-N^3-amoniumoxyacetyl-1,3-diamino-2,6-dioxaoctane-trifluoracetate]	does not result in an increase in their cytotoxicity	does not result in an increase in their cytotoxicity	no significant effect			around 0 mV	did not change due to acidification	107
CCCCCCCCCCCCCCC(CCCCCCCCCCCCCC)C(=O)NCCCNC(=O)CON.O=C(O)C(F)(F)F [Example 13, N^1-(2-tetradecylhexadecanoyl)-N^3-amoniumoxyacetyl-1,3-diaminopropane-trifluoracetate]	does not result in an increase in their cytotoxicity	does not result in an increase in their cytotoxicity	no significant effect			around 0 mV		
CCCCCCCC/C=C\CCCCCCCC(=O)OC[C@H](COP(=O)(O)OCCN)OC(=O)CCCCCCC/C=C\CCCCCCCC [DOPE, 1,2-dioleoyl-sn-glycero-3-phosphoethanolamine, reference compound]							20%	
